In test [1] the target is T1, human JAK3 kinase domain (JH1) (Homo sapiens, UniProt P52333).
T1 construct: recombinantly generated catalytic kinase (also known as JH1) domain of human JAK1, JAK2, JAK3 and TYK2
The test can be described thus: JH1 biochemical assay for JAK3 (ADP-Glo kinase assay, recombinant JH1 catalytic domain, JAK3-974 peptide, 4 μM ATP). Conditions: JAK3 JH1, ADP-Glo. The method in brief:
(§1)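 Reactions contain 50 μM peptide and run 100 minutes, with enzyme at 4, 0.2, 0.3 and 2 nM for JAK1, JAK2, JAK3 and TYK2. Generated ADP is read by luminescence; IC50 derives from normalized dose-response curves.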

Test [2] deals with T2, human TYK2 kinase domain (JH1) (Homo sapiens, UniProt P29597).
T2 construct: recombinantly generated catalytic kinase (also known as JH1) domain of human JAK1, JAK2, JAK3 and TYK2
T2 sequence (P29597 897-1176 limits assumed): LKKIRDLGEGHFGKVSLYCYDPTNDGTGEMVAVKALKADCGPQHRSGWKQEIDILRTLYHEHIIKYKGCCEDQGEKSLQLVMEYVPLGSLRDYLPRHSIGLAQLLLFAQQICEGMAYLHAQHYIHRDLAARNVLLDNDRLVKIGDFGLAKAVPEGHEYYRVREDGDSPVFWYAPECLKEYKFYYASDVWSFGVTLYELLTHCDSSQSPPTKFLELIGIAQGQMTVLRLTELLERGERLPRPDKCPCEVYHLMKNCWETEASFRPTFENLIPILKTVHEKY
As to the kind of experiment: JH1 biochemical assay for TYK2 (ADP-Glo kinase assay, recombinant JH1 catalytic domain, JAK3-974 peptide, 10 μM ATP). Conditions: TYK2 JH1, ADP-Glo. The gist of the method: as §1
(In ADP-Glo the light output rises with the ADP produced.)

Test [3] concerns the target T3, human JAK2 kinase domain (JH1) (Homo sapiens, UniProt O60674).
T3 construct: recombinantly generated catalytic kinase (also known as JH1) domain of human JAK1, JAK2, JAK3 and TYK2
As to the kind of experiment: JH1 biochemical assay for JAK2 (ADP-Glo kinase assay, recombinant JH1 catalytic domain, JAK3-974 peptide, 15 μM ATP). Conditions: JAK2 JH1, ADP-Glo. The method in brief: as §1

Test [4] addresses Tyk2 kinase activity on STAT4 in NK92 cells (Homo sapiens, UniProt P29597). The test can be described thus: pSTAT4 cell assay (MSD; NK92 cells, 30 ng/mL IL2 stimulation). It is filed as cell-based. The note with it: 30 ng/mL IL2, 15 minutes. The method in brief:
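IC50 values derive from 4-parameter logistic fits of normalized percent activity against log compound concentration. Phospho-STAT was measured by MSD with anti-STAT4 antibodies after 15 min of 30 ng/mL IL2 in serum-starved NK92 cells pretreated 1 hr with compound.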

The target of test [5] is JAK2 kinase activity on STAT5 in TF1 cells (Homo sapiens, UniProt O60674). The test can be described thus: pSTAT5 cell assay (MSD; TF1 cells, 30 ng/mL IL-3 stimulation). It is filed as cell-based. Conditions: 30 ng/mL IL-3, 15 minutes. The method in brief:
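Serum-starved TF1 cells with native JAK2/STAT5 were pretreated 1 h with compound (10-point four-fold dilutions from 10 μM), then stimulated 15 min with 30 ng/mL IL-3. pSTAT5 in lysates quantified by MSD immunoassay; normalized percent activity fitted to a 4-parameter logistic curve for IC50.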

Test [6] has as its target JAK1 kinase activity on STAT3 in TF1 cells (Homo sapiens, UniProt P23458). The test can be described thus: pSTAT3 cell assay (MSD; TF1 cells, 30 ng/mL IL-6 stimulation). The note with it: 30 ng/mL IL-6, 15 minutes. It is filed as cell-based. The gist of the method:
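Readout is pSTAT3 in lysates, quantified on an MSD plate assay using anti-STAT3 antibodies. Before lysis, TF1 cells had been serum-starved, exposed to compound for 1 hour across ten four-fold dilutions starting at 10 μM, and given IL-6 for 15 minutes.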

For test [7], the target named is T4, human JAK1 kinase domain (JH1) (Homo sapiens, UniProt P23458).
T4 construct: recombinantly generated catalytic kinase (also known as JH1) domain of human JAK1, JAK2, JAK3 and TYK2
As to the kind of experiment: JH1 biochemical assay for JAK1 (ADP-Glo kinase assay, recombinant JH1 catalytic domain, JAK3-342 peptide, 35 μM ATP). The note with it: JAK1 JH1, ADP-Glo. The method in brief: as §1

Structures are written as SMILES.

T3 sequence (O60674 849-1124 limits assumed): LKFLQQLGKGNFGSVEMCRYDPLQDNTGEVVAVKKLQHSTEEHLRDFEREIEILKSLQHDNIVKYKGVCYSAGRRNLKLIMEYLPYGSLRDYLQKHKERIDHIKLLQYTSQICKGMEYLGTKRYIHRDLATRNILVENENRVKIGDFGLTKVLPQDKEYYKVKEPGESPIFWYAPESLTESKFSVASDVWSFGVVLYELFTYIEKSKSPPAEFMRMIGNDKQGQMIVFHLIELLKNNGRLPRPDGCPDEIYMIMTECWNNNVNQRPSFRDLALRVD
T1 sequence (P52333 822-1111 limits assumed): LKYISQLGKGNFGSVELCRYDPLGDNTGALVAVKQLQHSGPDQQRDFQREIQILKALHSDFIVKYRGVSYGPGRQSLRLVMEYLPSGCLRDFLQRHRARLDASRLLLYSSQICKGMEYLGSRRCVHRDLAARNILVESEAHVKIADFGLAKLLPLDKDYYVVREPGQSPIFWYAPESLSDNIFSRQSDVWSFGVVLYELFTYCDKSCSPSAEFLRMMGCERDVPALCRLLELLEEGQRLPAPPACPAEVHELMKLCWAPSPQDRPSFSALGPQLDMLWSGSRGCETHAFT
Sequence of JAK2 kinase activity on STAT5 in TF1 cells (O60674 whole entry): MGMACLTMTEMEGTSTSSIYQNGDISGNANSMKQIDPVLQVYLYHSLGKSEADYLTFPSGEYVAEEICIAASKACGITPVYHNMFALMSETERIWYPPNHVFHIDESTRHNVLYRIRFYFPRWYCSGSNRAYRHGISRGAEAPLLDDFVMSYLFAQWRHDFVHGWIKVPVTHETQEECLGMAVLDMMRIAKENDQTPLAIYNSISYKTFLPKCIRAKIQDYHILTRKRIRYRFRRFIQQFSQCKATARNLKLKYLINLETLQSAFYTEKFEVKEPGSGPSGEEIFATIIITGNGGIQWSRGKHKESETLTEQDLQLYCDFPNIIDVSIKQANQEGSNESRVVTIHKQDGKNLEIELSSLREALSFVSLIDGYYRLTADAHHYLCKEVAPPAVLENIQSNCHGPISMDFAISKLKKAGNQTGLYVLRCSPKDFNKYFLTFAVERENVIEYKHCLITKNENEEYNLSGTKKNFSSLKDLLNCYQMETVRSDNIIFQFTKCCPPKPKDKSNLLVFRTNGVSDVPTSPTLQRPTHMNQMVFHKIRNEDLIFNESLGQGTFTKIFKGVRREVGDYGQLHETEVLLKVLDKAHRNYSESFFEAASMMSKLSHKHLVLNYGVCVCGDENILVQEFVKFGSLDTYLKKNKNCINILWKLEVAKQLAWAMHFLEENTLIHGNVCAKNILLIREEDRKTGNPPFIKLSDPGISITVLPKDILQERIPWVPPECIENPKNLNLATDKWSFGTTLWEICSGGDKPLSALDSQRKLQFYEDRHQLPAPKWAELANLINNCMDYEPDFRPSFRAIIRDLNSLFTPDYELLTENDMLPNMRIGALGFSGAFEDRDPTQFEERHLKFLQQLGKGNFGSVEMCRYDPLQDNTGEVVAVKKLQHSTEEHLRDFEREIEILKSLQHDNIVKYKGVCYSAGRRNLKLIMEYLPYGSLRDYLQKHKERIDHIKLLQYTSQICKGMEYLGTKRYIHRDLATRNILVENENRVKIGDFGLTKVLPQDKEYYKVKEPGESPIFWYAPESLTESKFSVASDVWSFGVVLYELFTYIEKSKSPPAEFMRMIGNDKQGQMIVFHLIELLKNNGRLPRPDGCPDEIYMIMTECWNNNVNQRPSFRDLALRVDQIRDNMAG
Sequence of Tyk2 kinase activity on STAT4 in NK92 cells (P29597 whole entry): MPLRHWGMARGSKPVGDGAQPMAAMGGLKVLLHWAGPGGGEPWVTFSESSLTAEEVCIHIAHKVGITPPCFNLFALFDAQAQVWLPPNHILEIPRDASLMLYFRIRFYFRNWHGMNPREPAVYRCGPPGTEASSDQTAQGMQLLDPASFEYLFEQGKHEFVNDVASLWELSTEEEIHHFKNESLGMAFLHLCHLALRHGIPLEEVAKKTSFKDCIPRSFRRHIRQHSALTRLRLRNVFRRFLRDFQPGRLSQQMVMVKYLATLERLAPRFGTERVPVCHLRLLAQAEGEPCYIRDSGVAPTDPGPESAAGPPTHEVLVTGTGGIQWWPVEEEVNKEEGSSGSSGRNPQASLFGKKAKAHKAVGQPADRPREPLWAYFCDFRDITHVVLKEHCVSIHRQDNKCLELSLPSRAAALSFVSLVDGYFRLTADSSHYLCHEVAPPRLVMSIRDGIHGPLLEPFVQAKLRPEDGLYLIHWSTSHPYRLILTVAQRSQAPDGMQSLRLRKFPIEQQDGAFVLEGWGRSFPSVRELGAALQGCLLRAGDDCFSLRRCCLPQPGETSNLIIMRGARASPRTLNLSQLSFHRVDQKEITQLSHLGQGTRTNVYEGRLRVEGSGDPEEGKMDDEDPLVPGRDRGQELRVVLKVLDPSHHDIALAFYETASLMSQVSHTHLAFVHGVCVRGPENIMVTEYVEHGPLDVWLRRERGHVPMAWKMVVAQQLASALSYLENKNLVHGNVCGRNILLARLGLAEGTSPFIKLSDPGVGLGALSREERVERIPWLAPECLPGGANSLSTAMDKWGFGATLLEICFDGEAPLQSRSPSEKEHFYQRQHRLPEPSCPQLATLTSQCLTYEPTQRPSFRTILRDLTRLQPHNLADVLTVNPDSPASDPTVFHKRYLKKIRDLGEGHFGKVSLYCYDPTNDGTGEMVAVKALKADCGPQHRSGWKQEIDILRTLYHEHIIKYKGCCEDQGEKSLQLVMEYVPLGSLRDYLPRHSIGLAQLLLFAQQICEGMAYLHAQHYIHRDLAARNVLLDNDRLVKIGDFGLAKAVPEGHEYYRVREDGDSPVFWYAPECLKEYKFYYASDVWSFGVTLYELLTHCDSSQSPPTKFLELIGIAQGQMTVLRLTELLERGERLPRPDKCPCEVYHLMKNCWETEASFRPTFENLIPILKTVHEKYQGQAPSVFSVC
T4 sequence (P23458 875-1153 limits assumed): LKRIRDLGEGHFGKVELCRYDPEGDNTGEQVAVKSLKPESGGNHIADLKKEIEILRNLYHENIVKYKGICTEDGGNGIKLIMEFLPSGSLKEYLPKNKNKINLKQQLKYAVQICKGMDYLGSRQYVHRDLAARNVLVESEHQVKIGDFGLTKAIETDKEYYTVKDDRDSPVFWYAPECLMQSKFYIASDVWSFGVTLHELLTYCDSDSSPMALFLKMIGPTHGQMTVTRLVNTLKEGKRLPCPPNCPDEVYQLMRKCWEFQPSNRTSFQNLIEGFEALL
Sequence of JAK1 kinase activity on STAT3 in TF1 cells (P23458 whole entry): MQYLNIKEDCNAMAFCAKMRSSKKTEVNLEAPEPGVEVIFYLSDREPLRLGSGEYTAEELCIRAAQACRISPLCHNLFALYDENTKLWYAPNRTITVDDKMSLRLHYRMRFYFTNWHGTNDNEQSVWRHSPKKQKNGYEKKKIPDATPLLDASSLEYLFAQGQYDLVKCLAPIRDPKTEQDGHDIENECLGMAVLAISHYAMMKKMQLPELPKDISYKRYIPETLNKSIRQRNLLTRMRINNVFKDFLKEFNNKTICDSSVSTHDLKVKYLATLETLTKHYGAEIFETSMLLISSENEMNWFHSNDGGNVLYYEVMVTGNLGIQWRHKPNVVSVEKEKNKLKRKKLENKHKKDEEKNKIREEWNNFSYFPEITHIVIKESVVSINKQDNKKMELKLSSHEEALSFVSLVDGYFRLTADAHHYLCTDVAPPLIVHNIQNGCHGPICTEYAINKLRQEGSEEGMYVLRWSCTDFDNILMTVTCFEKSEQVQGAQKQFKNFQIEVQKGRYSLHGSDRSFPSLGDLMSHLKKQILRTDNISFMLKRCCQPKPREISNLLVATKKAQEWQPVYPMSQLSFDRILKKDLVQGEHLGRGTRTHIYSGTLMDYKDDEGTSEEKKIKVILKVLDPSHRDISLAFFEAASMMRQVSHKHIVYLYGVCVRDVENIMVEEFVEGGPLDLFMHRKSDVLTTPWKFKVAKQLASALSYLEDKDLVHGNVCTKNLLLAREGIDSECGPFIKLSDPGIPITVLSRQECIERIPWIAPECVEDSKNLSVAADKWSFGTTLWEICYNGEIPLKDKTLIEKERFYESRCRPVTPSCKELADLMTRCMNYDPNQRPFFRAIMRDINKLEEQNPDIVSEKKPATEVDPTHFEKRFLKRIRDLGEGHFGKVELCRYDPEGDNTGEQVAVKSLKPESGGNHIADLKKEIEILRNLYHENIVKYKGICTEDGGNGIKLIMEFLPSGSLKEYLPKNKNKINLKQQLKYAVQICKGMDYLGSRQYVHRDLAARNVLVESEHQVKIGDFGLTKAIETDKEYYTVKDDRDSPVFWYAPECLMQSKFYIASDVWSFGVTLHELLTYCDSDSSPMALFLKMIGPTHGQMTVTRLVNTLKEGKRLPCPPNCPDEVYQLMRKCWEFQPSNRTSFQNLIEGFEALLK

As for `C[C@@H]1CN(c2ccnn3cc(-c4cnn([C@H]5C[C@@](F)(C#N)C5)c4)cc23)C(=O)[C@]1(C#N)C1CC1` [Example 326, (3R,4S)-1-(6-(1-((1r,3R)-3-cyano-3-fluorocyclobutyl)-1H-pyrazol-4-yl)pyrrolo[1,2-b]pyridazin-4-yl)-3-cyclopropyl-4-methyl-2-oxopyrrolidine-3-carbonitrile], the IC50 was below 100 nM in test [1]; below 5 nM in test [2]; below 100 nM in test [3]; above 100 nM in test [4]; 1000 to 5000 nM in test [5]; 1000 to 5000 nM in test [6]. Moreover, the IC50 in test [7] is below 100 nM.

For `C[C@@H]1CN(c2ccnn3cc(-c4cnn([C@H]5C[C@@H](C#N)C5)c4)cc23)C(=O)[C@]1(C#N)C1CC1` [Example 329, (3R,4S)-1-(6-(1-((1s,3S)-3-cyanocyclobutyl)-1H-pyrazol-4-yl)pyrrolo[1,2-b]pyridazin-4-yl)-3-cyclopropyl-4-methyl-2-oxopyrrolidine-3-carbonitrile], the IC50 is below 100 nM in test [1]; below 5 nM in test [2]; below 100 nM in test [3]; 20 to 50 nM in test [4]; 100 to 1000 nM in test [5]; 100 to 1000 nM in test [6]. Besides, in test [7], the IC50 is below 100 nM.

Take `C[C@@H]1CN(c2ccnn3cc(-c4cnn([C@H]5C[C@H](C#N)C5)c4)cc23)C(=O)[C@]1(C#N)C1CC1` [Example 330, (3R,4S)-1-(6-(1-((1r,3R)-3-cyanocyclobutyl)-1H-pyrazol-4-yl)pyrrolo[1,2-b]pyridazin-4-yl)-3-cyclopropyl-4-methyl-2-oxopyrrolidine-3-carbonitrile]: the IC50 in test [1] is below 100 nM; in test [2], below 5 nM; in test [3], below 100 nM; in test [4] it was 20 to 50 nM; in test [5], 1000 to 5000 nM; in test [6], 1000 to 5000 nM. In test [7], the IC50 is below 100 nM.

For `C[C@@H]1CN(c2ccnn3cc(-c4cnn(C5CCN(C)CC5)c4)cc23)C(=O)[C@]1(C#N)C1CC1` [Example 331, (3R,4S)-3-cyclopropyl-4-methyl-1-(6-(1-(1-methylpiperidin-4-yl)-1H-pyrazol-4-yl)pyrrolo[1,2-b]pyridazin-4-yl)-2-oxopyrrolidine-3-carbonitrile], the IC50 was below 100 nM in test [1]; below 5 nM in test [2]; below 100 nM in test [3]; 50 to 100 nM in test [4]; 100 to 1000 nM in test [5]; 1000 to 5000 nM in test [6]. Further, the IC50 in test [7] lay within 100 to 1000 nM.

For the compound `C[C@@H]1CN(c2ccnn3cc(-c4cnn(C5CCN(C)C5)c4)cc23)C(=O)[C@]1(C#N)C1CC1` (stereo partly drawn) [Example 332, (3R,4S)-3-cyclopropyl-4-methyl-1-(6-(1-(1-methylpyrrolidin-3-yl)-1H-pyrazol-4-yl)pyrrolo[1,2-b]pyridazin-4-yl)-2-oxopyrrolidine-3-carbonitrile], the IC50 in test [1] was below 100 nM; in test [2], below 5 nM; in test [3] it was 100 to 1000 nM; in test [4], 50 to 100 nM; in test [5] it was 1000 to 5000 nM; in test [6], 1000 to 5000 nM. In addition, the IC50 in test [7] lay in the range of 100 to 1000 nM.

As for `Cc1cnn(-c2cc3c(N4C[C@@H](C)[C@@](C#N)(C5CC5)C4=O)ccnn3c2)c1` [Example 333, (3R,4S)-3-cyclopropyl-4-methyl-1-(6-(4-methyl-1H-pyrazol-1-yl)pyrrolo[1,2-b]pyridazin-4-yl)-2-oxopyrrolidine-3-carbonitrile], the IC50 in test [1] was 100 to 1000 nM; in test [2], 5 to 20 nM; in test [3] it was 100 to 1000 nM; in test [4], above 100 nM; in test [5] it was above 10000 nM; in test [6] it was above 10000 nM. In test [7], the IC50 is 100 to 1000 nM.

Regarding `Cc1ccn(-c2cc3c(N4C[C@@H](C)[C@@](C#N)(C5CC5)C4=O)ccnn3c2)n1` [Example 334, (3R,4S)-3-cyclopropyl-4-methyl-1-(6-(3-methyl-1H-pyrazol-1-yl)pyrrolo[1,2-b]pyridazin-4-yl)-2-oxopyrrolidine-3-carbonitrile], the IC50 is 100 to 1000 nM in test [1]; 20 to 50 nM in test [2]; 1000 to 5000 nM in test [3]; above 100 nM in test [4]; above 10000 nM in test [5]; above 10000 nM in test [6]. The IC50 in test [7] was 1000 to 5000 nM.

Take `C[C@@H]1CN(c2ccnn3cc(-n4cccn4)cc23)C(=O)[C@]1(C#N)C1CC1` [Example 335, (3R,4S)-1-(6-(1H-pyrazol-1-yl)pyrrolo[1,2-b]pyridazin-4-yl)-3-cyclopropyl-4-methyl-2-oxopyrrolidine-3-carbonitrile]: the IC50 in test [1] is 100 to 1000 nM; in test [2], 20 to 50 nM; in test [3], 1000 to 5000 nM; in test [4], above 100 nM; in test [5], above 10000 nM; in test [6] it was above 10000 nM. Further, in test [7], the IC50 lay in the range of 100 to 1000 nM.

On to `C[C@@H]1CN(c2ccnn3cc(-n4ccnc4)cc23)C(=O)[C@]1(C#N)C1CC1` [Example 336, (3R,4S)-1-(6-(1H-imidazol-1-yl)pyrrolo[1,2-b]pyridazin-4-yl)-3-cyclopropyl-4-methyl-2-oxopyrrolidine-3-carbonitrile], for which the IC50 in test [1] is 100 to 1000 nM; in test [2], 20 to 50 nM; in test [3], 1000 to 5000 nM; in test [4], above 100 nM; in test [5] it was above 10000 nM; in test [6], above 10000 nM. In addition, the IC50 in test [7] was in the range of 100 to 1000 nM.

For `Cc1cn(-c2cc3c(N4C[C@@H](C)[C@@](C#N)(C5CC5)C4=O)ccnn3c2)cn1` [Example 341, (3R,4S)-3-cyclopropyl-4-methyl-1-(6-(4-methyl-1H-imidazol-1-yl)pyrrolo[1,2-b]pyridazin-4-yl)-2-oxopyrrolidine-3-carbonitrile], the IC50 in test [1] is 100 to 1000 nM; in test [2], 5 to 20 nM; in test [3] it was 100 to 1000 nM; in test [4], above 100 nM; in test [5], 5000 to 10000 nM; in test [6] it was 1000 to 5000 nM. Besides, the IC50 in test [7] fell in the range of 100 to 1000 nM.

On to `C[C@@H]1CN(c2ccnc3cc(-c4cnn(C56CC(C5)C6)c4)oc23)C(=O)[C@]1(C#N)C1CC1` [Example 344, (3R,4S)-1-(2-(1-(bicyclo[1.1.1]pentan-1-yl)-1H-pyrazol-4-yl)furo[3,2-b]pyridin-7-yl)-3-cyclopropyl-4-methyl-2-oxopyrrolidine-3-carbonitrile], for which the IC50 in test [1] is below 100 nM; in test [2], below 5 nM; in test [3], 100 to 1000 nM; in test [4], above 100 nM; in test [5], 1000 to 5000 nM; in test [6], 100 to 1000 nM. Moreover, in test [7], the IC50 is 100 to 1000 nM.

For the compound `CC(C)n1cc(-c2cc3nccc(N4C[C@@H](C)[C@@](C#N)(C5CC5)C4=O)c3o2)cn1` [Example 346, (3R,4S)-3-cyclopropyl-1-(2-(1-isopropyl-1H-pyrazol-4-yl)furo[3,2-b]pyridin-7-yl)-4-methyl-2-oxopyrrolidine-3-carbonitrile], the IC50 was below 100 nM in test [1]; below 5 nM in test [2]; 100 to 1000 nM in test [3]; above 100 nM in test [4]; 1000 to 5000 nM in test [5]; 1000 to 5000 nM in test [6]. Further, the 50% inhibitory concentration (IC50) in test [7] was below 100 nM.

As for `C[C@@H]1CN(c2ccnc3cc(-c4cnn(C5CC5)c4)oc23)C(=O)[C@]1(C#N)C1CC1` [Example 347, (3R,4S)-3-cyclopropyl-1-(2-(1-cyclopropyl-1H-pyrazol-4-yl)furo[3,2-b]pyridin-7-yl)-4-methyl-2-oxopyrrolidine-3-carbonitrile], the IC50 in test [1] is 100 to 1000 nM; in test [2], below 5 nM; in test [3], 100 to 1000 nM; in test [4], above 100 nM; in test [5] it was 5000 to 10000 nM; in test [6] it was 1000 to 5000 nM. Besides, in test [7], the IC50 lay in the range of 100 to 1000 nM.

As a reminder, the IC50 is the concentration needed to halve the response being measured.

For the origin of these results see patent publication US20260297085A1, “1 H-PYRROLO[2,3-B]PYRIDIN-4-YL]-2-OXOPYRROLIDINE-3-CARBONITRILE DERIVATIVES AS TYROSINE KINASE 2 (TYK2) INHIBITORS FOR THE TREATMENT OF INFLAMMATORY DISEASES” (BIOGEN MA INC., priority 2023, published 2026).
